Measurements: patent US3957978A, “Phosphonium anti-parasitics” (American Cyanamid Company, priority 1975, dated 1976)
Like-named read-outs stand apart in the source and are kept apart here.

Tested on: Nematospiroides dubius
Assay: Evaluation (Efficacy) Test in Mice, Nematospiroides dubius
Type: in vivo
Details: for inhibition in vivo at 0.05 %: 0.05 % diet; for inhibition in vivo at 0.1 %: 0.1 % diet
Text: The primary target parasite of this test is Nematospiroides dubius (Family: Heligmosomidae), which is phylogenetically related to certain economically important parasites of domestic and farm animals. Mice are orally inoculated with 20 to 30 infective N. dubius larvae. Mixed infections are obtained by subsequent inoculation with Aspicularis tetraptera and Hymenolepis nana. Eighteen days after inoculation the mice are divided into groups of four. Each group receives one compound at a specified dose rate, either as a single gavage dose or fed continually in the feed. Four groups of five mice each are utilized as infected, untreated controls. […] Those mice receiving single oral doses (SOD) or a single subcutaneous injection (Sc) of 5 mg./kg. to 100 mg./kg. of animal body weight of the compound under test are treated 22 days after inoculation. Eight days after start of treatment (drug diet) and 4 days post treatment (single dose SOD or Sc), the mice are necropsied, the worms recovered and counted. Percent efficacy for Nematospiroides is calculated using the formula: % Efficacy Equals [formula]
The diet used in the test procedures is a standard commercial mouse chow containing meat and bone meal, dried skimmed milk, wheat germ meal, fish meal, animal liver meal, dried beet pulp, ground extended corn, oat middlings, soybean meal, dehydrated alfalfa meal, cane molasses. animal fat preserved with BHA, vitamin B-12 supplement, calcium panthotenate, choline chloride, folic acid, riboflavin supplement, brewer's dried yeast, thiamine, niacin, vitamin A supplement, D activated plant sterol, vitamin E supplement, dicalcium phosphate, iodized salt, ferric ammonium citrate, iron oxide, manganous oxide, cobalt carbonate, copper oxide and zinc oxide; and the desired level of test compound.
When the drug is administered as a single oral dose, the drug is weighed and suspended in 0.2% agar, thoroughly mixed and orally introduced at the required volume.

[1] = Heligmosomoides polygyrus, po, 168 h, drug diet, 7 days, read-out: % Efficacy N.d.
[2] = Heligmosomoides polygyrus, po, single oral dose, read-out: % Efficacy N.d.
[3] = Heligmosomoides polygyrus, po, 168 h, drug diet, 0.025 % diet, 7 days, read-out: % Efficacy N.d.
[4] = Heligmosomoides polygyrus, po, single oral dose, 25 mg/kg, read-out: % Efficacy N.d.
[5] = Heligmosomoides polygyrus, sc, subcutaneous, 10 mg/kg, read-out: % Efficacy N.d.
[6] = Heligmosomoides polygyrus, sc, subcutaneous, 25 mg/kg, read-out: % Efficacy N.d.
[7] = drug diet, 0.006 % diet, 7 days
[8] = drug diet, 0.0125 % diet, 7 days

## Cc1ccc(P(=C[P+](c2ccccc2)(c2ccccc2)c2ccccc2)(c2ccccc2)c2ccccc2)cc1
[1]
  inhibition in vivo at 0.05 %: 59%
  inhibition in vivo at 0.1 %: 67%
[2]
  inhibition in vivo at 50 mg/kg: 31%
  inhibition in vivo at 100 mg/kg: 67%

## Cc1ccc([P+](C[P+](c2ccccc2)(c2ccccc2)c2ccccc2)(c2ccccc2)c2ccccc2)cc1 [P,P,P,P',P'-Pentaphenyl P'-p-tolyl-P,P' Methylenediphosphonium Dibromide]
[3]
  inhibition in vivo at 0.025 %: 60%
[1]
  inhibition in vivo at 0.05 %: 80%
[4]
  inhibition in vivo at 25 mg/kg: 57%
[2]
  inhibition in vivo at 50 mg/kg: 64%
  inhibition in vivo at 100 mg/kg: 77%

## c1ccc(C[P+](C[P+](Cc2ccccc2)(c2ccccc2)c2ccccc2)(c2ccccc2)c2ccccc2)cc1 [Type I, R1 Benzyl, X Br, Methylenebis(benzyldiphenyl)phosphonium Dibromide]
[1]
  inhibition in vivo at 0.05 %: 73%
[2]
  inhibition in vivo at 50 mg/kg: 79%
  inhibition in vivo at 100 mg/kg: 80%

## c1ccc([P+](C[P+](c2ccccc2)(c2ccccc2)c2ccccc2)(c2ccccc2)c2ccccc2)cc1 [Type I, R1 Phenyl, X Br, Methylenebis Triphenylphosphonium Dibromide]
[3]
  inhibition in vivo at 0.025 %: 100%
Heligmosomoides polygyrus, po, 168 h, drug diet, 0.125 % diet, 7 days, read-out: % Efficacy N.d.
  inhibition in vivo at 0.125 %: 94%
[5]
  inhibition in vivo at 10 mg/kg: 42%
[6]
  inhibition in vivo at 25 mg/kg: 84%
[7]
  % Efficacy N.d.: 78%
Single oral dose, 5 mg/kg
  % Efficacy N.d.: 49%
Single oral dose, 10 mg/kg
  % Efficacy N.d.: 51.5%
Single oral dose, 25 mg/kg
  % Efficacy N.d.: 95.5%

## c1ccc([P+](C[P+](c2ccccc2)(c2ccccc2)c2ccccc2)(c2ccccc2)c2ccccc2)cc1 [Type I, R1 Phenyl, X Cl, methylenebis triphenylphosphonium dichloride]
Heligmosomoides polygyrus, po, 168 h, drug diet, 0.006 % diet, 7 days, read-out: % Efficacy N.d.
  inhibition in vivo at 0.006 %: 85%
Heligmosomoides polygyrus, po, 168 h, drug diet, 0.0125 % diet, 7 days, read-out: % Efficacy N.d.
  inhibition in vivo at 0.0125 %: 100%
[4]
  inhibition in vivo at 25 mg/kg: 96.5%
Single oral dose, 5 mg/kg
  % Efficacy N.d.: 85%
Single oral dose, 10 mg/kg
  % Efficacy N.d.: 84%

## Cc1ccc([P+](C[P+](c2ccccc2)(c2ccccc2)c2ccc(C)cc2)(c2ccccc2)c2ccccc2)cc1 [Type I, R1 p-tolyl, X Br, Methylenebis(diphenyl-p-tolyl) Phosphonium Dibromide]
[1]
  inhibition in vivo at 0.1 %: 57%
[2]
  inhibition in vivo at 50 mg/kg: 57%
  inhibition in vivo at 100 mg/kg: 75%

## C(=P(c1ccccc1)(c1ccccc1)c1ccccc1)[P+](c1ccccc1)(c1ccccc1)c1ccccc1 [Type II, R1 Phenyl, X 2,6-Diiodo-4-nitrophenol] [Triphenyl[(triphenylphosphoranylidene)methyl]-phosphonium-2,6-diiodo-4-nitrophenolate]
[7]
  % Efficacy N.d.: 41%
[8]
  % Efficacy N.d.: 86.5%
Drug diet, 0.025 % diet, 7 days
  % Efficacy N.d.: 99.5%
Single oral dose, 5 mg/kg, dosage weight is that of the cation
  % Efficacy N.d.: 36.7%
Single oral dose, 10 mg/kg, dosage weight is that of the cation
  % Efficacy N.d.: 44.7%
Single oral dose, 25 mg/kg, dosage weight is that of the cation
  % Efficacy N.d.: 88.5%

## C(=P(c1ccccc1)(c1ccccc1)c1ccccc1)[P+](c1ccccc1)(c1ccccc1)c1ccccc1.[Br-] [Type II, R1 Phenyl, X Br, Triphenyl[(triphenylphosphoranylidene)methyl]-phosphonium Bromide]
Heligmosomoides polygyrus, po, single oral dose, 5 mg/kg, read-out: % Efficacy N.d.
  inhibition in vivo at 5 mg/kg: 32.5%
Heligmosomoides polygyrus, po, single oral dose, 10 mg/kg, read-out: % Efficacy N.d.
  inhibition in vivo at 10 mg/kg: 65%
[5]
  inhibition in vivo at 10 mg/kg: 74%
[6]
  inhibition in vivo at 25 mg/kg: 94%
[7]
  % Efficacy N.d.: 94%
[8]
  % Efficacy N.d.: 100%
Single oral dose, 25 mg/kg
  % Efficacy N.d.: 89%

## C(=P(c1ccccc1)(c1ccccc1)c1ccccc1)[P+](c1ccccc1)(c1ccccc1)c1ccccc1 [Type II, R1 Phenyl, X Br^-.CuBr2]
[3]
  inhibition in vivo at 0.025 %: 100%
Heligmosomoides polygyrus, po, single oral dose, 10 mg/kg, dosage weight is that of the cation, read-out: % Efficacy N.d.
  inhibition in vivo at 10 mg/kg: 43%
Heligmosomoides polygyrus, po, single oral dose, 25 mg/kg, dosage weight is that of the cation, read-out: % Efficacy N.d.
  inhibition in vivo at 25 mg/kg: 76%
[8]
  % Efficacy N.d.: 51%

## C(=P(c1ccccc1)(c1ccccc1)c1ccccc1)[P+](c1ccccc1)(c1ccccc1)c1ccccc1.[Cl-] [Type II, R1 Phenyl, X Cl, Triphenyl[(triphenylphosphoranylidene)methyl]-phosphonium Chloride]
[4]
  inhibition in vivo at 25 mg/kg: 96%
[7]
  % Efficacy N.d.: 91%
[8]
  % Efficacy N.d.: 100%
Single oral dose, 10 mg/kg
  % Efficacy N.d.: 51%
